According to patent publication US20260001914A1, “MACROCYCLIC PEPTIDES TARGETING KRAS” (Merck Sharp & Dohme LLC, priority 2022, published 2026):
*1 amine or outer side, *2 acyl side, *3 side chain or, on linkers, in order; H or OH if unused. Where a SMILES comes first, the peptide text is derived from it. Bridges are numbered along the chain shown (N, C = ends). [ ]: non-standard residue; d: D form. cBu(1-CO,cis-3-CH2NH) = O=C([C@H]1C[C@@H](CN[*:1])C1)[*:2]; X75 = CCC[C@H](N[*:1])c1nncn1[C@@H](Cc1ccccc1)C(=O)[*:2]; NMeNva(5-imidazol-1-yl) = CN[C@@H](CCCn1ccnc1)C(=O)O; Phe(4-guanidino) = N=C(N)Nc1ccc(C[C@H](N)C(=O)O)cc1; X23 = O=C([C@H](Cc1ccc(C(F)(F)F)nc1)N[*:1])[*:2]; X59 = O=C([C@H](Cc1ccc(CN2CCCC2)cc1)N[*:1])[*:2]; Phe(3,4-Cl2) = N[C@@H](Cc1ccc(Cl)c(Cl)c1)C(=O)O; X78 = Nc1ccnc2ccc(C[C@H](N[*:1])C(=O)[*:2])cc12; Ala(pyrimidin-5-yl) = N[C@@H](Cc1cncnc1)C(=O)O; NMe3Pal(5-F) = CN[C@@H](Cc1cncc(F)c1)C(=O)O; NMePhe(3-Me) = CN[C@@H](Cc1cccc(C)c1)C(=O)O; X39 = CN([C@@H](Cc1cccnc1F)C(=O)[*:2])[*:1]; X11 = CC(C)(F)CC[C@H](N[*:1])C(=O)[*:2]; NMeAha = CN[C@@H](CCN=[N+]=[N-])C(=O)O; Phe(4-F) = N[C@@H](Cc1ccc(F)cc1)C(=O)O; 1Nal = N[C@@H](Cc1cccc2ccccc12)C(=O)O; Phe(2-F) = N[C@@H](Cc1ccccc1F)C(=O)O; X31 = O=C([C@H](CCC1CC1)N[*:1])[*:2]; NMe3Pal = CN[C@@H](Cc1cccnc1)C(=O)O; X1 = O=C(C12CC(CN[*:1])(C1)C2)[*:2]; X38 = NC(=O)CCCN(CC(=O)[*:2])[*:1]; NMeR = CN[C@@H](CCCNC(=N)N)C(=O)O; Ala(cPr) = N[C@@H](CC1CC1)C(=O)O; NMeF = CN[C@@H](Cc1ccccc1)C(=O)O; PhLac = O=C(O)[C@@H](O)Cc1ccccc1; 3Pal = N[C@@H](Cc1cccnc1)C(=O)O; d(αMeC) = C[C@@](N)(CS)C(=O)O; Ahp(2) = CCCCC[C@H](N)C(=O)O; Cba = N[C@@H](CC1CCC1)C(=O)O; hLeu = CC(C)CC[C@H](N)C(=O)O; NMeS = CN[C@@H](CO)C(=O)O; αMeC = C[C@](N)(CS)C(=O)O; NMeA = CN[C@@H](C)C(=O)O; Nle = CCCC[C@H](N)C(=O)O; Nva = CCC[C@H](N)C(=O)O

molecular target: KRAS-G12D protein (Homo sapiens, UniProt P01116, G12D); test: SOS-mediated nucleotide exchange assay (BODIPY-GDP / Tb-streptavidin TR-FRET); type: biochemical
Sequence (P01116 1-188 isoform P01116-2 G12D): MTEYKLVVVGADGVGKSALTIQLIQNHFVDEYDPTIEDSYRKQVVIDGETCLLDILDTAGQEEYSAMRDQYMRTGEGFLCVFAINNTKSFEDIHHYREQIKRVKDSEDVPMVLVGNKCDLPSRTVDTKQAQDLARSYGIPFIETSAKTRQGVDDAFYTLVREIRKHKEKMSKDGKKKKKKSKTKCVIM

| SMILES | EC50 [nM] |
| --- | --- |
| CCCCC[C@@H]1NC(=O)[C@H](Cc2ccc(OC)cc2)NC(=O)[C@H](CC2CCC2)NC(=O)[C@H](Cc2ccc(NC(=N)N)cc2)NC(=O)CN(CCCC(N)=O)C(=O)[C@H](Cc2ccccc2)NC(=O)CSC[C@@](C)(C(N)=O)NC(=O)[C@H](Cc2ccccc2)N(C)C1=O [compound 386, cyclo(F-Cmpg-Phe4Gn-cBuA-TyrOMe-Abp-NMeF-aMeCl-ClAc)] ({CH2CO}-F[X38][Phe(4-guanidino)][Cba]Y(Me)[Ahp(2)][NMeF][αMeC]-NH2; thioether N-8) | 134 |
| CCCC[C@@H]1NC(=O)[C@H](Cc2ccc(OC)cc2)NC(=O)[C@H](CC(C)C)NC(=O)[C@H](Cc2ccc(NC(=N)N)cc2)NC(=O)[C@H](Cc2ccc3nccc(N)c3c2)NC(=O)[C@H](Cc2ccccc2)NC(=O)CSC[C@@H](C(N)=O)NC(=O)[C@H](Cc2ccccc2)N(C)C1=O [compound 29, cyclo(F-6Quin4NH2-Phe4Gn-L-TyrOMe-Nle-NMeF-Cl-ClAc)] ({CH2CO}-F[X78][Phe(4-guanidino)]LY(Me)[Nle][NMeF]C-NH2; thioether N-8) | 7790 |
| Cc1cccc(C[C@H]2C(=O)NCC34CC(C3)(C4)C(=O)O[C@@H](Cc3ccccc3)C(=O)N(C)[C@@H](C)C(=O)N[C@@H](Cc3cncnc3)C(=O)N[C@@H](CC3CC3)C(=O)N[C@@H](Cc3ccccc3F)C(=O)N[C@@H](CCC3CC3)C(=O)N2C)c1 [compound 334, cyclo(FLac-NMeA-PyrimAla-cPrA-Phe2F-hcPrA-NMePhe3Me-amBCP)] (cyclo([Ala(cPr)][Phe(2-F)][X31][NMePhe(3-Me)][X1][PhLac][NMeA][Ala(pyrimidin-5-yl)])) | 2 |
| CCCC[C@@H]1NC(=O)[C@H](Cc2cncnc2)NC(=O)[C@H](CO)N(C)C(=O)[C@H](Cc2ccccc2)OC(=O)C23CC(CNC(=O)[C@H](Cc4cccnc4)N(C)C(=O)[C@H](CCCC)NC(=O)[C@H](Cc4ccccc4F)NC1=O)(C2)C3 [compound 119, cyclo(FLac-NMeS-PyrimAla-Nle-Phe2F-Nle-NMe3Pal-amBCP)] (cyclo([NMe3Pal][X1][PhLac][NMeS][Ala(pyrimidin-5-yl)][Nle][Phe(2-F)][Nle])) | 375 |
| CCC[C@@H]1NC(=O)[C@H](Cc2ccc(O)cc2)NC(=O)[C@H](CC(C)C)NC(=O)[C@H](Cc2ccc(O)cc2)NC(=O)[C@H](CCCNC(=N)N)N(C)C(=O)[C@H](Cc2ccccc2)NC(=O)CSC[C@H](C(N)=O)NC(=O)[C@H](Cc2ccccc2)N(C)C1=O [compound 176, cyclo(F-NMeR-Y-L-Y-Nva-NMeF-dCl-ClAc)] ({CH2CO}-F[NMeR]YLY[Nva][NMeF][dC]-NH2; thioether N-8) | 2420 |
| CCCCC[C@@H]1NC(=O)[C@H](Cc2ccc(OC)cc2)NC(=O)[C@H](CC2CCC2)NC(=O)[C@H](Cc2ccc(NC(=N)N)cc2)NC(=O)[C@H](CCCNC(=N)N)NC(=O)[C@H](Cc2ccccc2)NC(=O)CSC[C@H](C(N)=O)NC(=O)[C@H](Cc2ccccc2)N(C)C1=O [compound 352, cyclo(F-R-Phe4Gn-cBuA-TyrOMe-Ahp-NMeF-dCl-ClAc)] ({CH2CO}-FR[Phe(4-guanidino)][Cba]Y(Me)[Ahp(2)][NMeF][dC]-NH2; thioether N-8) | 4.92 |
| CCCC[C@@H]1NC(=O)[C@H](Cc2cccnc2)NC(=O)[C@H](C)N(C)C(=O)[C@H](Cc2ccc(F)cc2)NC(=O)C23CC(CNC(=O)[C@H](Cc4cccnc4)N(C)C(=O)[C@H](CCCC)NC(=O)[C@H](Cc4ccccc4F)NC1=O)(C2)C3 [compound 167, cyclo(Phe4F-NMeA-3Pal-Nle-Phe2F-Nle-NMe3Pal-amBCP)] (cyclo([3Pal][Nle][Phe(2-F)][Nle][NMe3Pal][X1][Phe(4-F)][NMeA])) | 99.9 |
| CCCC[C@@H]1NC(=O)[C@H](Cc2ccc(C(F)(F)F)nc2)NC(=O)[C@H](CCN=[N+]=[N-])N(C)C(=O)[C@H](Cc2ccccc2)OC(=O)C23CC(CNC(=O)[C@H](Cc4cccnc4)N(C)C(=O)[C@H](CCCC)NC(=O)[C@H](Cc4ccccc4F)NC1=O)(C2)C3 [compound 241, cyclo(FLac-NMeDabN3-4CF33Pal-Nle-Phe2F-Nle-NMe3Pal-amBCP)] (cyclo([NMe3Pal][X1][PhLac][NMeAha][X23][Nle][Phe(2-F)][Nle])) | 435 |
| CCCC[C@@H]1NC(=O)[C@H](Cc2cccnc2)NC(=O)[C@H](CO)N(C)C(=O)[C@H](Cc2ccccc2)OC(=O)C23CC(CNC(=O)[C@H](Cc4cccnc4)N(C)C(=O)[C@H](CCCC)NC(=O)[C@H](Cc4ccccc4F)NC1=O)(C2)C3 [compound 118, cyclo(FLac-NMeS-3Pal-Nle-Phe2F-Nle-NMe3Pal-amBCP)] (cyclo([3Pal][Nle][Phe(2-F)][Nle][NMe3Pal][X1][PhLac][NMeS])) | 466 |
| CCCC[C@@H]1NC(=O)[C@H](Cc2ccc(CN3CCCC3)cc2)NC(=O)[C@H](CCCn2ccnc2)N(C)C(=O)[C@H](Cc2ccccc2)NC(=O)[C@H]2C[C@@H](CNC(=O)[C@H](Cc3cccnc3)N(C)C(=O)[C@H](CCCC)NC(=O)[C@H](Cc3ccccc3F)NC1=O)C2 [compound 266, cyclo(F-NMeNvalmid-Phe4cPyrr-Nle-Phe2F-Nle-NMe3Pal-c3amCb1c)] (cyclo(F[NMeNva(5-imidazol-1-yl)][X59][Nle][Phe(2-F)][Nle][NMe3Pal][cBu(1-CO,cis-3-CH2NH)])) | 215 |
| CCCC[C@@H]1NC(=O)[C@H](Cc2ccc(Cl)c(Cl)c2)NC(=O)[C@H](C)N(C)C(=O)[C@H](Cc2ccccc2)OC(=O)C23CC(CNC(=O)[C@H](Cc4ccccc4)N(C)C(=O)[C@H](CCCC)NC(=O)[C@H](Cc4ccccc4F)NC1=O)(C2)C3 [compound 309, cyclo(FLac-NMeA-Phe34Cl2-Nle-Phe2F-Nle-NMeF-amBCP)] (cyclo([NMeA][Phe(3,4-Cl2)][Nle][Phe(2-F)][Nle][NMeF][X1][PhLac])) | 108 |
| CCCCC[C@@H]1NC(=O)[C@H](Cc2ccc(OC)cc2)NC(=O)[C@H](CC2CCC2)NC(=O)[C@H](Cc2ccc(N3CCC[C@H]3CN)cc2)NC(=O)[C@H](CCCNC(=N)N)NC(=O)[C@H](Cc2ccccc2)NC(=O)CSC[C@@](C)(C(N)=O)NC(=O)[C@H](Cc2ccccc2)N(C)C1=O [compound 392, cyclo(F-R-Phe4SamPyrr-cBuA-TyrOMe-Ahp-NMeF-aMeCl-ClAc)] | 8.59 |
| CC(C)CC[C@@H]1NC(=O)[C@H](Cc2ccccc2F)NC(=O)[C@H](CC2CC2)NC(=O)[C@H](Cc2cncnc2)NC(=O)[C@H](C)N(C)C(=O)[C@H](Cc2ccccc2)OC(=O)C23CC(CNC(=O)[C@H](Cc4cncc(F)c4)N(C)C1=O)(C2)C3 [compound 282, cyclo(FLac-NMeA-PyrimAla-cPrA-Phe2F-hL-NMe3Pal5F-amBCP)] (cyclo([Ala(cPr)][Phe(2-F)][hLeu][NMe3Pal(5-F)][X1][PhLac][NMeA][Ala(pyrimidin-5-yl)])) | 2 |
| C[C@H]1C(=O)N[C@@H](Cc2cncnc2)C(=O)N[C@@H](CC2CC2)C(=O)N[C@@H](Cc2ccccc2F)C(=O)N[C@@H](CCC(C)(C)F)C(=O)N(C)[C@@H](Cc2ccccc2)C(=O)NCC23CC(C2)(C3)C(=O)O[C@@H](Cc2ccccc2)C(=O)N1C [compound 277, cyclo(FLac-NMeA-PyrimAla-cPrA-Phe2F-hL3F-NMeF-amBCP)] (cyclo([Ala(cPr)][Phe(2-F)][X11][NMeF][X1][PhLac][NMeA][Ala(pyrimidin-5-yl)])) | 2 |
| CC(C)CC[C@@H]1NC(=O)[C@H](Cc2ccccc2F)NC(=O)[C@H](CC2CC2)NC(=O)[C@H](Cc2cncnc2)NC(=O)[C@H](C)N(C)C(=O)[C@H](Cc2ccccc2)OC(=O)C23CC(CNC(=O)[C@H](Cc4cccnc4F)N(C)C1=O)(C2)C3 [compound 336, cyclo(FLac-NMeA-PyrimAla-cPrA-Phe2F-hL-NMe3Pal2F-amBCP)] (cyclo([Ala(cPr)][Phe(2-F)][hLeu][X39][X1][PhLac][NMeA][Ala(pyrimidin-5-yl)])) | 5 |
| CCCC[C@@H]1NC(=O)[C@H](Cc2cccnc2)NC(=O)[C@H](CCCn2ccnc2)N(C)C(=O)[C@H](Cc2ccccc2)N(C)C(=O)C23CC(CNC(=O)[C@H](Cc4cccnc4)N(C)C(=O)[C@H](CCCC)NC(=O)[C@H](Cc4ccccc4F)NC1=O)(C2)C3 [compound 264, cyclo(NMeF-NMeNvalmid-3Pal-Nle-Phe2F-Nle-NMe3Pal-amBCP)] (cyclo([3Pal][Nle][Phe(2-F)][Nle][NMe3Pal][X1][NMeF][NMeNva(5-imidazol-1-yl)])) | 4030 |
| CCCC[C@@H]1NC(=O)[C@H](Cc2cccnc2)NC(=O)[C@H](C)N(C)C(=O)[C@H](Cc2ccccc2)OC(=O)C23CC(CNC(=O)[C@H](Cc4ccccc4)N(C)C(=O)[C@H](CCCC)NC(=O)[C@H](Cc4ccccc4F)NC1=O)(C2)C3 [compound 236, cyclo(FLac-NMeA-3Pal-Nle-Phe2F-Nle-NMeF-amBCP)] (cyclo([3Pal][Nle][Phe(2-F)][Nle][NMeF][X1][PhLac][NMeA])) | 50.3 |
| CCCC[C@@H]1NC(=O)[C@H](Cc2cccnc2)NC(=O)[C@H](C)N(C)C(=O)[C@H](Cc2ccc(OC)cc2)NC(=O)C23CC(CNC(=O)[C@H](Cc4cccnc4)N(C)C(=O)[C@H](CCCC)NC(=O)[C@H](Cc4ccccc4F)NC1=O)(C2)C3 [compound 169, cyclo(TyrOMe-NMeA-3Pal-Nle-Phe2F-Nle-NMe3Pal-amBCP)] (cyclo([3Pal][Nle][Phe(2-F)][Nle][NMe3Pal][X1]Y(Me)[NMeA])) | 757 |
| CCCC[C@@H]1NC(=O)[C@H](Cc2ccc(NC(=N)N)cc2)NC(=O)[C@H](CCCNC(=N)N)NC(=O)[C@H](Cc2cccc3ccccc23)NC(=O)CSC[C@](C)(C(=O)O)NC(=O)[C@H](Cc2ccccc2)N(C)C(=O)[C@H](CCCC)NC(=O)[C@H](Cc2ccc(O)cc2)NC1=O [compound 143, cyclo(INal-R-Phe4Gn-Nlc-Y-Nle-NMeF-daMeC-ClAc)] ({CH2CO}-[1Nal]R[Phe(4-guanidino)][Nle]Y[Nle][NMeF][d(αMeC)]-OH; thioether N-8) | 575 |
| CCC[C@@H]1NC(=O)[C@H](Cc2ccc(OC)cc2)NC(=O)[C@H](CC2CCC2)NC(=O)[C@H](Cc2cccnc2)NC(=O)[C@H](CCCNC(=N)N)NC(=O)[C@H](Cc2ccccc2)NC(=O)CSC[C@H](C(N)=O)NC(=O)[C@H](Cc2ccccc2)n2cnnc21 [SEQ ID NO: 64, cyclo(F-R-3Pal-cBuA- TyrOMe-124triazole- dC-ClAc)] ({CH2CO}-FR[3Pal][Cba]Y(Me)[X75][dC]-NH2; thioether N-7) | 2820 |
